This note sets out measurements from patent publication US20140050778A1, “NUCLEIC ACID BINDING COMPOUNDS, METHODS OF MAKING, AND USE THEREOF” (UNIVERSITY OF ROCHESTER, priority 2010, published 2014).

The structures appear in SMILES notation. Entries after “also recorded” stand apart in the source; their conditions may differ.

Data set [1] addresses (CUG)10 RNA (SEQ ID NO: 3). Kind of data set: SPR binding to immobilized biotinylated RNA. The following applies: SPR, (CUG)10. As for the experimental part:
SPR binding measurements were performed on a Biacore-X instrument (Biacore, Inc., Uppsala, Sweden) with two flow channels (FC1 and FC2). 5′-Biotinylated-RNA sequences, with a C6 linker separating the biotin label from the RNA (Integrated DNA Technologies Inc.) were immobilized on streptavidin (Rockland Immunochemicals) functionalized carboxylmethyl dextran coated sensor chips (CM5, G.E. Healthcare) using EDC/NHS (Advanced ChemTech) coupling chemistry. Filtered (0.2μ), degassed and autoclaved HBS-N buffer (0.01M Hepes, pH=7.4, 0.15 M NaCl) was employed as sample and as running buffer for all SPR experiments. A typical protocol for an experiment is as follows: A CM5 sensor chip was allowed to equilibrate to room temperature and then docked into the instrument. Following priming with running buffer, FC1 and FC2 were conditioned by manual injection of 20 μL aqueous NaOH (50 mM) at a flow rate of 30 μL/min. This was repeated 3 times followed by a wash command. Next, the carboxyl groups on the sensor chip surface in both flow cells were activated separately by injecting 60 μL of freshly prepared 1:1 mixture of EDC (0.4 M) and NHS (0.1 M) at a 5 μL/min flow rate followed by a wash. […] After washing, the surface was deactivated with 60 μL injection of ethanolamine (1M, pH=8.5) at 5 μL/min. The flow cells were primed, and the streptavidin surface in FC1 alone was blocked with 30 μL of biotin (20 μM in HBS-N) at 5 μL/min. The RNA (200 nM in running buffer, HBS-N) to be immobilized was unfolded by heating above its predicted melting temperature in a heated block for 2 min and then allowed to refold by cooling gradually to room temperature. The RNA was then immobilized in FC2 alone to response units ranging from 200-1000 RU using a 5 μL/min flow rate. Representative sensorgrams for the immobilization procedure is shown in FIGS. 2A-B. Two 20 μL aliquots of NaCl (0.5 M) were injected at a 30 μL/min flow rate to remove non-specifically bound RNA. The level of RNA immobilized was noted when the baseline was stable, usually after repeated buffer injection followed by a “prime” command. Binding measurements were performed by flowing various concentrations of the compounds to be analyzed over the immobilized RNA and recording the reference-subtracted (FC2−FC1) sensorgrams. For kinetic analysis, at least five sensorgrams corresponding to different concentrations of compound (usually ranging from 0.05-1 μM in HBS-N) were obtained using flow rates of either 60 μL/min or 30 μL/min. The experimental sensorgrams were globally fitted to a 1:1 binding equation (Biaevaluation software) to obtain association rates (ka) and dissociation rates ([…]) as well as equilibrium binding constants (KD). To measure the binding stoichiometry (n), the relations in equations (1-3) below were used: […]
where RUmax is the maximum resonance response unit at saturation, RURNA is the amount RU of RNA immobilized, n is the stoichiometry, MWcompound and MWRNA are molecular weights of compound and RNA respectively, and RUeq represents the resonance response at steady-state (equilibrium). The response units at equilibrium were subjected to Scatchard binding plots of (r/Cfree vs. r).
This technique allows the association and dissociation rates (ka and kd), equilibrium binding constants (KD), and the binding stoichiometry (n) to be measured in a label-free format (Liu and Wilson, “Quantitative Analysis of Small Molecule-nucleic Acid Interactions with a Biosensor Surface and Surface Plasmon Resonance Detection,” Methods Mol. Biol. 613:1-23 (2010), which is hereby incorporated by reference in its entirety).

The subject of the next data set is human fibroblasts. Kind of data set: MTT toxicity assay. As to conditions: single substance, concentrations up to 500 μM. Type of data set: cell-based. As for the experimental part:
(§1) For toxicity studies, mouse myoblasts or human fibroblasts were plated in a 96-well tissue culture plate in DMEM (10% fetal bovine serum, 100 units/ml penicillin, […]) and allowed to grow to approximately 80% confluence at 37° C. under CO2. Varying compound concentrations (up to 1 mM) were incubated with cells (48 hours, 37° C.). Media was then removed, and 3-(4,5-dimethylthiazol-2-yl)-2,5-diphenyltetrazolium bromide (“MTT”) in media was added to each well and incubated at 37° C. for 4 h. After removal of the MTT media, isopropanol (100 pp was added, and absorbance was measured at 600 nm on a Modulus microplate reader (Turner Biosystems).
SPR and fluorescence titration experiments, performed using the protocol described in Examples 3 and 4 above, except using as the target a highly conserved RNA sequence responsible for regulating the production of the Gag-Pol polyprotein via a −1 ribosomal frameshift, which occurs along a “slippery sequence” in gag-pol mRNA (SEQ ID NO: 7). This “frameshift stimulatory sequence” (or “HIV-1 FSS”) consists of an upper stemloop and a lower stem, separated by a purine bulge in the most common types of HIV (FIG. 19). For the fluorescent titration experiments, the upper stemloop of SEQ ID NO: 7 was employed. Cell uptake and toxicity studies were carried out using human fibroblasts according to Example 5 above.
(In general: Formazan colour is commonly taken as a measure of viable cells.)

Another data set concerns mouse C2C12 myoblasts. Kind of data set: Cell permeability by fluorescence microscopy. It counts as cell-based. As to conditions: 12 h, 125 μM, intrinsic fluorescence. As for the experimental part:
For cell permeability studies, human fibroblasts or mouse myoblasts grown to 80% confluence were exposed to compounds for 12 hours in a 96 well tissue culture plate. After removal of the culture media (DMEM, with 10% FBS, 1% pen-strep (GIBCO)) the cells were washed twice with PBS to remove excess compounds. Cells were then imaged while in buffer under a fluorescence microscope (Olympus IX70) in the 96-well plate using a 460 nm emission filter.

The test system of a further data set is pseudotyped HIV. Kind of data set: Pseudotyped HIV assay (HEK293T producer cells, p24 ELISA, HeLa LTR-luciferase). Type of data set: cell-based, HIV-1. As to conditions: 500 nM, single dose experiments. The method, then: Initial experiments were conducted to ascertain if compound 14 (designated as compound 5-5 Z in PCT Publ. […]. After transfection, cells were incubated with compound for 20 hours. Viruses produced in untreated and treated cells were recovered from the media and viral titers were assessed using a p24 ELISA assay as described previously by Miller et al., “The Dimerization Domain of HIV-1 Viral Infectivity Factor Vif is Required to Block Virion Incorporation of APOBEC3G,” Retrovirology 4:81 (2007), which is hereby incorporated by reference in its entirety. The same number of virus from control and compound-treated cells were used to infect a HeLa cell line expressing luciferase under the control of an LTR promoter (Platt et al., “Effects of CCRS and CD4 Cell Surface Concentrations on Infections by Macrophagetropic Isolates of Human Immunodeficiency Virus Type 1,” J. Virol. 72:2855-2864 (1998), which is hereby incorporated by reference in its entirety). Viral infectivity was quantified in microtiter well format based on the luciferase signals. […]
This experiment was repeated using a dose-response study to assess the efficacy of compound 18. […] Actin concentration (as measured by Western blot) was used to correct viral titers for any subtle variation in cell number, and to confirm that the observed effect is specific to virus production and not to off-target effects. […]
(ELISA stands for enzyme-linked immunosorbent assay.)

Data set [2] has as its system human fibroblasts / mouse myoblasts. Kind of data set: MTT toxicity assay, comparison drugs (FIGS. 13A-B). Type of data set: cell-based. The method, then:
as §1

As for `CCc1nc2cc3ccccc3cc2cc1C(=O)O` [Compound 2, 2-ethylbenzo[g]quinoline-3-carboxylic acid], in data set [1], the “apparent KD” value is “complete lack of binding”. The “toxicity (MTT)” value with human fibroblasts was “no toxicity”. For the same compound, in the data set on mouse C2C12 myoblasts, the “cell membrane penetration / localization” value was “only a modest ability to enter cells; also recorded: not internalized by cells”. Also, in the data set on pseudotyped HIV, the “decrease in viral titer relative to null control” value was “no effect”.

Consider `COc1cccc2c1C(=O)c1c(O)c3c(c(O)c1C2=O)C[C@@](O)(C(C)=O)C[C@@H]3O[C@H]1C[C@H](N)[C@H](O)[C@H](C)O1` [daunorubicin], for which the “toxicity (MTT)” value in data set [2] is given as “significant toxicity at all concentrations tested”.
